In paper PMC12797155 (ACS Pharmacology & Translational Science, 2025):
“And” between values parts separate entries of the source, which are not always exact repeats. Equal values may be shown once.

How the values were obtained:
[1] = tested on: PAR4; experiment: Human platelet flow cytometry assay, PAR4 activation (α-thrombin + vorapaxar); format: cell-based; conditions: alpha-thrombin flow cytometry assay, human platelets; PAR4 vs PAR1
Source text: (§1) Same as described previously.
(§2) In the flow cytometry experiments, thrombin activates PAR4 on human platelets. […] In the flow cytometry assay, human platelets are stimulated with thrombin in the presence of either a PAR4 antagonist (BMS-3) or a PAR1 antagonist (Vorapaxar). This determines the IC50 of the test compound against PAR1 and PAR4 activation.

[2] = biological target: T1, PAR4 (Homo sapiens, UniProt Q96RI0); experiment: as above; format: cell-based; conditions: human platelets, α-thrombin + vorapaxar; N = 3
T1 sequence (Q96RI0 48-385): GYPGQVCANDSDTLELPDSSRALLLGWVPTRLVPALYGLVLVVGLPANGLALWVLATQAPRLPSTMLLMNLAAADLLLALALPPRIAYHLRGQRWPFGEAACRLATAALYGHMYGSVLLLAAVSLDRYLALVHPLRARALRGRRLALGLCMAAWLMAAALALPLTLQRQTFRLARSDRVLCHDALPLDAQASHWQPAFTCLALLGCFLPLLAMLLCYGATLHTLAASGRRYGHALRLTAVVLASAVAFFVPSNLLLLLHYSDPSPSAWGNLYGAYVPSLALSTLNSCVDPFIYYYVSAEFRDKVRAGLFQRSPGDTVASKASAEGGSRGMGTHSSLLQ
Source text: as §1, §2

[3] = biological target: T2, thrombin (Homo sapiens, UniProt P00734); experiment: Michaelis-Menten enzyme kinetic analysis of thrombin in the presence of PAR4 antagonists; format: biochemical; design: unit not given here; conditions: thrombin in the presence of PAR4 antagonist
T2 construct: Alpha-thrombin was ordered from Enzyme Research Laboratories; purchased Enzyme Research Laboratories (South Bend, IN)
Protocol: (§3) Chromogenic substrate, S-2238, was ordered from DiaPharma (West Chester, OH). Alpha-thrombin was ordered from Enzyme Research Laboratories (South Bend, IN). White, round, clear-bottom 96-well plates were used to run the screen. The plate was read using a BioTek Neo plate reader every minute for 60 min at a wavelength of 405 nm. The substrate control wells were subtracted from the raw counts, and the data was normalized to the thrombin enzyme control wells as a percentage. The percentages were graphed in GraphPad Prism.
To also characterize what type of inhibition was occurring with these compounds, we performed Michaelis–Menten enzyme kinetic analysis. […] This is not a surprising finding, as thrombin is believed to interact with PAR4 only at the active cleft of thrombin. PAR4 lacks the hirudin-like binding domain that PAR1 has, which enables PAR1 to have a higher affinity to thrombin.
2 Thrombin inhibition characterization of PAR4 antagonists. A) Michaelis–Menten plot depicting thrombin enzymatic activity in the presence of various PAR4 antagonists. B) Lineweaver–Burk plot of the Michaelis–Menten plot.

[4] = biological target: T3, alpha thrombin (Homo sapiens, UniProt P00734); experiment: Chromogenic thrombin activity assay with substrate S-2238; format: biochemical; conditions: for inhibition at 0.5 µM: read-out: inhibition of thrombin; for IC50: thrombin activity assay, N = 3, read-out: IC50 against thrombin (S-2238 Thrombin Kinetic Assay)
T3 construct: Alpha-thrombin was ordered from Enzyme Research Laboratories; purchased Enzyme Research Laboratories (South Bend, IN)
Protocol: as §3, with “Prism. To investigate thrombin inhibition, we utilized a chromogenic assay with a thrombin substrate, S-2238. Thrombin activity was measured by the production of a visible color change to substrate S-2238. Each assay run included a substrate control, where just substrate was added to the well without thrombin enzyme, an enzyme control (EC), which consisted of thrombin without any inhibitor present, and an inhibitor control (IC), which contained a known thrombin inhibitor, Argatroban.” for “Prism.”

Row | Molecule | Vmax [3] | preference for PAR4 over PAR1 [1] | IC50 [2] | inhibition at 0.5 µM [4] | IC50 [4]
1 | CC1CNc2c(cccc2S(=O)(=O)N[C@@H](CCCNC(=N)N)C(=O)N2CC[C@@H](C)C[C@@H]2C(=O)O)C1 (stereo partly drawn) [Argatroban, reference compound] | – | no preference for PAR4 over PAR1 | 65.2 nM | – | –
2 | Cn1nc(C(=O)Nc2n[nH]c(-c3c(F)cccc3F)n2)cc1C1CC1 [Compound 12] | – | – | ~149 nM | ~70% | ~71 nM and 70.6 nM
3 | O=C(Nc1n[nH]c(-c2ccc(F)cc2F)n1)c1nn(-c2ccccc2)c2c1CCCC2 [Compound 31] | 0.1010 | – | ~160 nM | ~70% | ~1000 nM and 1090 nM
4 | Hirugen [reference compound] | – | no preference for PAR4 over PAR1 | – | – | –

Further lines, with some results ahead:

Row | Vmax [3] | Molecule | preference for PAR4 over PAR1 [1] | IC50 [2] | inhibition at 0.5 µM [4] | IC50 [4]
5 | 0.08856 | COc1ccc2cc(-c3cn4nc(SC)sc4n3)oc2c1 [Compound 6PMJ] | – | – | – | –
6 | 0.08588 | Cc1nc(NC(=O)c2cc(C(=O)OC(C)(C)C)n(-c3ccccc3)n2)n[nH]1 [Compound 7] | – | 6600 nM | – | –
7 | 0.0849 | Cc1cc(C(=O)Nc2nc(-c3cccc(OC(F)F)c3)n[nH]2)nn1-c1ccccc1 [Compound 9] | – | – | – | –
8 | 0.09616 | COc1cccc(-c2nc(NC(=O)c3nn(-c4ccccc4)c4c3CCCC4)n[nH]2)c1 [Compound 32] | – | – | – | –
